Results: patent publication US20090054245A1, “Method for detecting gastric cancer by detecting VLDLR gene” (FUJIFILM Corporation, priority 2006, published 2009)
Entries after “also recorded” stand apart in the source; their conditions may differ.

Key:
[1] = system: human VLDLR gene expression in SNU601 and MKN74 cells; assay: RT-PCR analysis of human VLDLR expression in gastric cancer cells treated with 5-aza-dC and/or TSA; type: cell-based
Description: An empty pGL3 basic vector (mock) and constructs each comprising a different one of 3 sequences (fragments 1 to 3) upstream or in the proximity of VLDLR exon 1 were separately introduced into SNU601 and MKN74 cells. Luciferase activity was normalized relative to that of an internal control. Data shown in FIG. 3B contains mean values±SEMs of triplicate experiments of 3 different constructs. […] Arrows indicate fragments that were digested with restriction enzymes in a specific manner at sites recognized as methylated CpGs. […] With the use of two fragments (BS-1 and BS-2), all of the 71 CpG sites were subjected to sequencing. Squares represent CpG sites (white square: unmethylated site; and black square: methylated site).
The human VLDLR gene expression was examined in the cases in which CpG islands of the human VLDLR gene in gastric cancer cells were demethylated. Specifically, gastric cancer cells were treated in the presence of 5-aza-dC (serving as a transmethylase inhibitor) at different concentrations for 5 days, followed by determination of the capacity of inducing human VLDLR mRNA. […] RT-PCR was carried out with the use of two types of specific primers used for amplification of human VLDLR gene, followed by electrophoresis. GAPDH was used as an internal control. […]

[2] = system: CpG islands of the human VLDLR gene in gastric cancer cells; assay: Demethylation of VLDLR CpG islands by culturing gastric cancer cells with 5-aza-dC; type: cell-based; conditions: gastric cancer cells cultured in the presence of 5-aza-dC
Description: In addition, the extent of methylation of the CpG islands strongly correlated with inhibition of the expression of the human VLDLR gene in some gastric cancer cells.

SMILES | human VLDLR gene expression level in the presence of TSA ([1]; SNU601 and MKN74 cells with densely methylated VLDLR CpG islands, TSA (10 ng/ml in FIG. 3A legend)) | human VLDLR mRNA expression after 5-aza-dC treatment ([1]; SNU601 and MKN74 cells (no VLDLR expression, no homozygous deletion), 5-aza-dC for 5 days (10 μM in FIG. 3A legend)) | demethylation of CpG islands of the human VLDLR gene [2]
CC(/C=C/C(=O)NO)=C\[C@@H](C)C(=O)c1ccc(N(C)C)cc1 [TSA, trichostatin A] | equivalent to that obtained in the absence of TSA | – | –
Nc1ncn([C@H]2C[C@H](O)[C@@H](CO)O2)c(=O)n1 [5-aza-dC, 5-azadeoxycytidine] | – | possible to recover the expression level of the human VLDLR gene; also recorded: found to have the capacity of inducing human VLDLR mRNA | possible to demetylate such CpG islands
